Molecules are shown by their SMILES.

This note sets out measurements from patent US20140287048A1, “PASTE COMPRISING NON-STEROIDAL ANTI-INFLAMMATORY DRUG” (priority 2011, published 2014).

The series in a line: in vivo. Conditions: po.

`Cc1cnc(NC(=O)C2=C(O)c3ccccc3S(=O)(=O)N2C)s1` [meloxicam] had a bioavailability of approximately 98%.

As usually defined, the bioavailability is dose-corrected exposure relative to a reference, in per cent.
